Laboratory results taken from ChEMBL document CHEMBL4680366, “Tumor-Targeted Bivalent Protein Degradation for Application in Cancer Therapy” (ACS Med Chem Lett, 2021).
pIC50: −log10 of the molar value. The source made the active and inactive calls. No cut-off for these calls is given here.

Assays:
[1] = target: Bromodomain-containing protein 4 (Homo sapiens, UniProt O60885); test: Binding affinity to recombinant human BRD4 BD1 and BD2 expressed in Escherichia coli BL21 incubated for 2 hrs under shaking condition by HTRF assay
[2] = target: Heat shock protein HSP 90-alpha/Bromodomain-containing protein 4 (Homo sapiens) (UniProt P07900+O60885); test: Protac activity at HSP90/BRD4 in human MV4-11 cells assessed as degradation of BRD4 at 40 to 1000 nM measured after 24 hrs by flow cytometry relative to control; assay type: cell-based; details: dose 40-1000 nM
[3] = system: MV4-11; test: Antitumor activity at human MV4-11 cells xenografted in BALB/c mouse assessed as tumor growth inhibition at 25 to 100 mg/kg, ip administered for 3 to 4 weeks; assay type: functional, organism-based; details: dose 25-100 mg/kg, time 3-4 weeks

SMILES | pIC50 [1] | Activity [2] | TGI [3]
Cc1sc2c(c1C)C(c1ccc(Cl)cc1)=N[C@@H](CC(=O)N1CCC(CCN3CCC(Cc4ccc(-n5c(O)nnc5-c5cc(C(C)C)c(O)cc5O)cc4)CC3)CC1)c1nnc(C)n1-2 | > 7.00 |  | 
Cc1sc2c(c1C)C(c1ccc(Cl)cc1)=N[C@@H](CC(=O)N1CCC(CN3CCN(Cc4ccc(-n5c(O)nnc5-c5cc(C(C)C)c(O)cc5O)cc4)CC3)CC1)c1nnc(C)n1-2 [listing 1 of 3 here] |  | > 50% | Active
Cc1sc2c(c1C)C(c1ccc(Cl)cc1)=N[C@@H](CC(=O)N1CCC(CN3CCN(Cc4ccc(-n5c(O)nnc5-c5ccc(O)cc5O)cc4)CC3)CC1)c1nnc(C)n1-2 | > 7.00 |  | 
Cc1sc2c(c1C)C(c1ccc(Cl)cc1)=N[C@@H](CC(=O)NCCOCCN1CCC(Cc3ccc(-n4c(O)nnc4-c4cc(C(C)C)c(O)cc4O)cc3)CC1)c1nnc(C)n1-2 | > 7.00 |  | 
Cc1sc2c(c1C)C(c1ccc(Cl)cc1)=N[C@@H](CC(=O)N[C@@H](C)c1ccc(CN3CCC(Cc4ccc(-n5c(O)nnc5-c5cc(C(C)C)c(O)cc5O)cc4)CC3)cc1)c1nnc(C)n1-2 | > 7.00 |  | 
CCc1cc(-c2nnc(C(=O)NCC(F)(F)F)n2-c2ccc(CN3CCN(CC4CCN(C(=O)C[C@@H]5N=C(c6ccc(Cl)cc6)c6c(sc(C)c6C)-n6c(C)nnc65)CC4)CC3)cc2)c(O)cc1O | 7.00 |  | Active

Now from value to compound, other results behind:

pIC50 [1] | Activity [2] | SMILES | TGI [3]
> 7.00 | > 50% | Cc1sc2c(c1C)C(c1ccc(Cl)cc1)=N[C@@H](CC(=O)NCC(=O)NCC1CCN(C(=O)C3CCN(Cc4ccc(-n5c(O)nnc5-c5cc(C(C)C)c(O)cc5O)cc4)CC3)CC1)c1nnc(C)n1-2 | 
7.00 | > 50% | CCc1cc(-c2nnc(O)n2-c2ccc(CN3CCN(CC4CCN(C(=O)C[C@@H]5N=C(c6ccc(Cl)cc6)c6c(sc(C)c6C)-n6c(C)nnc65)CC4)CC3)cc2)c(O)cc1O | 
> 7.00 |  | CCc1cc(-c2nnc(O)n2-c2ccc(CN3CCC(C(=O)N4CCC(CNC(=O)C[C@@H]5N=C(c6ccc(Cl)cc6)c6c(sc(C)c6C)-n6c(C)nnc65)C4)CC3)cc2)c(O)cc1O (stereo not given in full) | 
7.00 |  | Cc1sc2c(c1C)C(c1ccc(Cl)cc1)=N[C@@H](CC(=O)N1CCC(CN3CCN(Cc4ccc(-n5c(O)nnc5-c5cc(C(C)C)c(O)cc5O)cc4)CC3)CC1)c1nnc(C)n1-2 [listing 2 of 3 here] | 
7.00 |  | Cc1sc2c(c1C)C(c1ccc(Cl)cc1)=N[C@@H](CC(=O)N1CCC(CN3CCN(Cc4ccc(-n5c(O)nnc5-c5cc(C(C)C)c(O)cc5O)cc4)CC3)CC1)c1nnc(C)n1-2 [listing 3 of 3 here] | 
